Laboratory results published in PubChem BioAssay AID248 (DTP/NCI, 2004).
“And” between values parts separate entries of the source, which are not always exact repeats. Equal entries are not always repeated. Toxic doses and inconclusive results are not listed. No stated cut-off is given here; in the data, active means T/C of 150% or more; inactive means T/C below 125%.

Test system: L1210 leukemia ip in BDF1 mice, survival T/C
Assay: NCI In Vivo Anticancer Drug Screen. Data for tumor model L1210 Leukemia (intraperitoneal) in B6D2F1 (BDF1) mice
Conditions: endpoint: mean survival time, higher = longer survival
Summary of the method: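 Ratio derived from survival: compound-dosed mice over vehicle-dosed mice, all bearing a transplantable tumor.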

[1] = dose: 100.0 mg/kg/injection, schedule: Q04DX002 (ip), vehicle: Klucel (hydroxypropylcellulose) (HPC)
[2] = dose: 200.0 mg/kg/injection, schedule: Q04DX002 (ip), vehicle: Klucel (hydroxypropylcellulose) (HPC)
[3] = dose: 400.0 mg/kg/injection, schedule: Q04DX002 (ip), vehicle: Klucel (hydroxypropylcellulose) (HPC)
[4] = dose: 100.0 mg/kg/injection, schedule: Q01DX001 (ip), vehicle: Klucel (hydroxypropylcellulose) (HPC)
[5] = dose: 200.0 mg/kg/injection, schedule: Q01DX001 (ip), vehicle: Klucel (hydroxypropylcellulose) (HPC)
[6] = dose: 400.0 mg/kg/injection, schedule: Q01DX001 (ip), vehicle: Klucel (hydroxypropylcellulose) (HPC)

Measured: T/C

O=C(c1ccccc1)C(C(=O)c1ccccc1)C(C[N+](=O)[O-])c1ccccc1 (stereo not given)
inactive: dose: 100.0 mg/kg/injection, schedule: Q01DX001 (ip), vehicle: gum acacia 86 % of control | dose: 200.0 mg/kg/injection, schedule: Q01DX001 (ip), vehicle: gum acacia 86 % of control | dose: 400.0 mg/kg/injection, schedule: Q01DX001 (ip), vehicle: gum acacia 90 % of control

Cc1ccc(NC(=S)N(C)C)cc1C
inactive: dose: 100.0 mg/kg/injection, schedule: Q01DX009 (ip), vehicle: Klucel (hydroxypropylcellulose) (HPC) 95 % of control | dose: 200.0 mg/kg/injection, schedule: Q01DX009 (ip), vehicle: Klucel (hydroxypropylcellulose) (HPC) 101 % of control | dose: 400.0 mg/kg/injection, schedule: Q01DX009 (ip), vehicle: Klucel (hydroxypropylcellulose) (HPC) 104 % of control

O=CNC(Cc1ccc(O)cc1)C(=O)O (stereo not given)
inactive: dose: 100.0 mg/kg/injection, schedule: Q04DX003 (ip), vehicle: saline 95 % of control | dose: 200.0 mg/kg/injection, schedule: Q04DX003 (ip), vehicle: saline 91 % of control | dose: 400.0 mg/kg/injection, schedule: Q04DX003 (ip), vehicle: saline 93 % of control

O=S(=O)(Cl)OC(CCl)C(OS(=O)(=O)Cl)C(OS(=O)(=O)Cl)C(CCl)OS(=O)(=O)Cl (stereo not given)
inactive: dose: 100.0 mg/kg/injection, schedule: Q04DX003 (ip), vehicle: saline with Tween-80 102 % of control | dose: 200.0 mg/kg/injection, schedule: Q04DX003 (ip), vehicle: saline with Tween-80 97 % of control | dose: 400.0 mg/kg/injection, schedule: Q04DX003 (ip), vehicle: saline with Tween-80 114 % of control

O=C1OCC/C1=C/OCCCCCCO/C=C1/CCOC1=O
inactive: [1] 102 % of control | [2] 102 % of control | [3] 91 % of control

O=S1(=O)CC(Cl)C1
inactive: dose: 50.0 mg/kg/injection, schedule: Q01DX001 (ip), vehicle: carboxymethylcellulose (CMC) 107 % of control | dose: 100.0 mg/kg/injection, schedule: Q01DX001 (ip), vehicle: carboxymethylcellulose (CMC) 89 % of control | dose: 200.0 mg/kg/injection, schedule: Q01DX001 (ip), vehicle: carboxymethylcellulose (CMC) 97 % of control

N#CCCN1CCCC1=O
inactive: dose: 100.0 mg/kg/injection, schedule: Q01DX001 (ip), vehicle: saline 103 % of control | dose: 200.0 mg/kg/injection, schedule: Q01DX001 (ip), vehicle: saline 100 % of control | dose: 400.0 mg/kg/injection, schedule: Q01DX001 (ip), vehicle: saline 106 % of control

COC(=O)Cc1ccccc1OC
inactive: dose: 50.0 mg/kg/injection, schedule: Q01DX009 (ip), vehicle: saline with Tween-80 87 % of control | dose: 100.0 mg/kg/injection, schedule: Q01DX009 (ip), vehicle: saline with Tween-80 87 % of control | dose: 200.0 mg/kg/injection, schedule: Q01DX009 (ip), vehicle: saline with Tween-80 87 % of control

Cc1cc(C)c(S(=O)(=O)c2ccc([N+](=O)[O-])c3ccccc23)c(C)c1
inactive: [4] 107 % of control | [5] 91 % of control | [6] 101 % of control

CCCOC(C)(C)CCC/C(C)=C/COc1ccc(CC)cc1
inactive: dose: 100.0 mg/kg/injection, schedule: Q04DX002 (ip), vehicle: saline with Tween-80 96 % of control | dose: 200.0 mg/kg/injection, schedule: Q04DX002 (ip), vehicle: saline with Tween-80 92 % of control | dose: 400.0 mg/kg/injection, schedule: Q04DX002 (ip), vehicle: saline with Tween-80 105 % of control

CCc1nc(N[N+](=O)[O-])nc(N)c1-c1ccccc1O
inactive: dose: 50.0 mg/kg/injection, schedule: Q04DX002 (ip), vehicle: Klucel (hydroxypropylcellulose) (HPC) 97 % of control | [1] 93 % of control and 111 % of control | [2] 97 % of control | [3] 90 % of control

Clc1ccc2c(n1)Sc1c(Cl)nc(Cl)nc1N2
inactive: [4] 95 % of control | [5] 108 % of control | [6] 93 % of control

CCCCN(CCCC)CCCN1C(=O)c2ccccc2S1(=O)=O
inactive: dose: 44.0 mg/kg/injection, schedule: Q01DX Z (ip), vehicle: methylcellulose (MC) 96 % of control | dose: 66.0 mg/kg/injection, schedule: Q01DX Z (ip), vehicle: methylcellulose (MC) 100 % of control | dose: 100.0 mg/kg/injection, schedule: Q01DX Z (ip), vehicle: methylcellulose (MC) 96 % of control
